Measurements published in patent publication US20100298249A1, “PHARMACEUTICAL OR COSMETIC PREPARATIONS FOR TOPICAL AND/OR PARENTERAL APPLICATION, PREPARATION METHODS THEREOF AND USE OF SAME” (priority 2007, published 2010).

Columns and labels:
[1] = humans; cited from earlier work
[2] = molecular target: hyaluronidase of bovine origin (Bos taurus, UniProt Q2YDK3); assay: Inhibitory effect on hyaluronidase activity of bovine origin (turbidimetry of nonhydrolysed hyaluronic acid); type: biochemical; conditions: various concentrations, FIG. 1
hyaluronidase of bovine origin, sequence (Q2YDK3 entry or part of it): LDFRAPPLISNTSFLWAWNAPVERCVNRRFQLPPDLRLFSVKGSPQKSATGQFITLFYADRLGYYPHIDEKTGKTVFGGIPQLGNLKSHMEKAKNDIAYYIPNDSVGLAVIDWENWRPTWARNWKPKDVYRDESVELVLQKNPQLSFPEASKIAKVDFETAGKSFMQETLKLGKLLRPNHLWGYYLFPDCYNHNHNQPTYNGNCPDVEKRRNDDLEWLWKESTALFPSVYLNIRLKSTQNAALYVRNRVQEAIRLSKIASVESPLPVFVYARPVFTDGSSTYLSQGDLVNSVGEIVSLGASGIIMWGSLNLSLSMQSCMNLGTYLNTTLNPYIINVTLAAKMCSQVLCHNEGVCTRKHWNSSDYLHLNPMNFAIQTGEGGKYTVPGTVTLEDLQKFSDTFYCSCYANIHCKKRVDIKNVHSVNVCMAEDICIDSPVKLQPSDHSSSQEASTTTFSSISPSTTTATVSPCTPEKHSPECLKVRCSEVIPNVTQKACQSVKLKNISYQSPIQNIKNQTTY
Protocol: Determination of the IC50 of GLZ, with or without Preincubation at 37° C.: GLZ, at various concentrations, is or is not preincubated for 20 minutes at 37° C. in the presence of the enzyme. The enzyme reaction is triggered by adding the hyaluronic acid solution (time T0). After incubation for 20 minutes, the nonhydrolysed hyaluronic acid is precipitated by adding acidic bovine albumin solution. In order to verify that the preincubation step has no effect on the stability of the hyaluronidase, an aliquot of a solution of the enzyme is placed at 37° C. for 20 minutes. Another aliquot is conserved in an ice bath for 19 minutes, and is then incubated at 37° C. for 1 minute. A solution of hyaluronic acid is then added to each aliquot (T0). After incubation for 15, 30 or 45 minutes, the nonhydrolysed hyaluronic acid is precipitated by addition of acidic bovine albumin solution. After the precipitation step, the turbidimetry of the solutions is determined on a spectrophotometer at a wavelength of 600 nm. The optical density (OD) of these solutions is subtracted from the OD of a control solution of hyaluronic acid (of the same concentration) not hydrolysed by the enzyme. This difference in OD, which is inversely proportional to the concentration of hyaluronic acid, is used to measure the activity of the hyaluronidase.

Molecule | excretion in the urine [1] | inhibitory effect on the bovine hyaluronidase [2]
hyaluronic acid | less than 1 % of total clearance | –
CC1(C)[C@@H](O[C@H]2O[C@H](C(=O)O)[C@@H](O)[C@H](O)[C@H]2O[C@@H]2O[C@H](C(=O)O)[C@@H](O)[C@H](O)[C@H]2O)CC[C@]2(C)[C@H]3C(=O)C=C4[C@@H]5C[C@@](C)(C(=O)O)CC[C@]5(C)CC[C@@]4(C)[C@]3(C)CC[C@@H]12 [GLZ, Glycyrrhizin] | – | dose-dependent
